Assay results as given in patent US7323494B2, “Compounds and methods” (SmithKline Beecham Corporation, priority 2002, dated 2008).

Columns and labels:
[1] = target: T1, LXRα ligand binding domain (Homo sapiens, UniProt Q13133); assay: Ligand Sensing Assay for LXRα agonist activity; format: biochemical; details: 1 μM; over a background reading of 10000 fluorescence units
T1 construct: His tag; made in house
T1 sequence (Q13133 183-447): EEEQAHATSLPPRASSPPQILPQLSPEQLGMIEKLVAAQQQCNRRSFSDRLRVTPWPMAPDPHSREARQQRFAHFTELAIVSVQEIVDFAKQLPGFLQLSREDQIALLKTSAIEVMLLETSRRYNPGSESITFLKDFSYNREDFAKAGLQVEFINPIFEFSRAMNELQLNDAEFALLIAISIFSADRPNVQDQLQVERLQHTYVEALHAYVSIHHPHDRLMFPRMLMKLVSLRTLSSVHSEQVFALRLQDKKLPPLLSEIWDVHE
T1 sequence (Q15788 676-700 partner): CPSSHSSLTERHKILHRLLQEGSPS
Protocol: Test Method 2: Ligand Sensing Assay for LXRα Agonist Activity
The assay for LXRα was run according to the procedures of Test Method 1, above using his-tagged LXRα ligand binding domain (amino acids 183-447 of Genbank accession number U22662, with the 14th amino acid corrected to A from R). In this assay 1 μM 24(S),25-epoxycholesterol gave a reading of 20000 fluorescence units over a background reading of 10000 fluorescence units.

[2] = target: T2, human LXRβ ligand binding domain (Homo sapiens, UniProt P55055); assay: Ligand Sensing Assay (LiSA) for LXRβ agonist activity (SRC1 peptide recruitment); format: biochemical; details: 1 μM; over a background reading of 10000 fluorescence units
T2 construct: made in house; host or cells: E. coli BL21 (DE3), pRSETa
T2 sequence (P55055 184-460 limits assumed): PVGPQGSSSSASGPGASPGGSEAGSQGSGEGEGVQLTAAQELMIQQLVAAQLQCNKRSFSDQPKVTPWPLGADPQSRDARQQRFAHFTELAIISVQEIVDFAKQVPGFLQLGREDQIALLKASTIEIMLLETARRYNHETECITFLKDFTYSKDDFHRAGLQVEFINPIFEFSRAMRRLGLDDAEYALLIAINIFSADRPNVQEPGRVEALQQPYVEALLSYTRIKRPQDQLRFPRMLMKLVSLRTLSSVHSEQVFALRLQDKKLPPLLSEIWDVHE
T2 sequence (Q15788 676-700 partner limits assumed): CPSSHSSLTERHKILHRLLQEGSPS
Source text: Test Method 1: Ligand Sensing Assay (LiSA) for LXRβ Agonist Activity
This assay measures the recruitment of a peptide derived from the coactivator protein, SRC1, to the agonist-bound LXR[…]. Peptides derived from other nuclear receptor cofactors may be similarly prepared and assayed.
To generate the human LXRβ ligand binding domain suitable for LISA, a modified polyhistidine tag (MKKGHHHHHHG) (SEQ ID No. 1) was fused in frame to the human LXRβ ligand binding domain (amino acids 185-461 of Genbank accession number U07132) and subcloned into the expression vector pRSETa (Invitrogen) under the control of an IPTG inducible T7 promoter. The human LXRβ ligand binding domain was expressed in E. coli strain BL21 (DE3). Ten-liter fermentation batches were grown in Rich PO4 media with 0.1 mg/mL Ampicillin at 25° C. for 12 hours, cooled to […] and held at that temperature for 36 hours to a density of OD600=14. […]
Typically 25-50 g of cell paste is resuspended in 250-500 mL TBS, pH 8.0 (25 mM Tris, 150 mM NaCl). […] After washing to baseline absorbance with equilibration buffer, the column is washed with approximately one column volume of TBS pH-8.0 containing 95 mM imidazole. […] After washing to baseline absorbance with the dilution buffer the protein is eluted with a gradient from 50-500 mM NaCl. […]

## C[C@H](CC[C@@H]1OC1(C)C)[C@H]1CC[C@H]2[C@@H]3CC=C4C[C@@H](O)CC[C@]4(C)[C@H]3CC[C@]12C [24(S),25-epoxycholesterol]
[1]
  reading (fluorescence units): 20000 fluorescence units
[2]
  reading (fluorescence units): 20000 fluorescence units
